Here are results for one substance from US20190211099A1, “METHODS AND COMPOSITIONS FOR TREATING CANCER WITH SIGLEC-9 ACTIVITY MODULATORS” (KING'S COLLEGE LONDON, priority 2016, published 2019).

In experiment [1] the test system is recombinant Siglecs 3, 7, 9 and 10. Description: Binding of biotinylated MUC1 glycoforms to plate-bound recombinant Siglec fusion proteins. Details: species or system human. The note with it: 2 μg/ml biotinylated MUC1 glycoform, 4 hours; panel Siglec 3, 5, 7, 8, 9 and 10. Here is the method:
Binding was enhanced when cells were pre-treated with 0.04 U/ml neuraminidase for 30 minutes at 37° C. in PBS (FIG. 3C), which removes competing cis-binding sialic acid sites from the surface of the cells. As this pattern is characteristic of binding to Siglecs (Macauley et al. (2014) NAT. REV. IMMUNOL. 14: 653-666), MUC1-ST binding to Siglecs was tested as follows: mouse anti human IgG was bound to plastic O/N and the plate was blocked using 1% BSA in PBS. Recombinant human Siglec (3, 5, 7, 8, 9 and 10) fusion proteins were added at 2 μg/mL for 2 hours. After incubation with 2 μg/ml biotinylated MUC1 glycoforms for 4 hours, O.D. was measured after the addition of streptavidin-HRP and substrate. […] Although Siglecs 3, 7 and 9 are expressed by monocytes and macrophages (FIG. 3D), a blocking antibody to Siglec-9 inhibited 80-95% of the MUC1-ST binding to these cells (FIGS. 2G-2I, 3E, and 5) indicating this is the dominant binding Siglec. […] Importantly, Siglec-9 bound to the breast cancer cell line T47D that expresses MUC1 carrying sialylated Core-1 glycans (FIG. 2J). Finally, isolated monocytes were bound to 10 μg/mL biotinylated MUC1-ST or 10 μg/mL biotinylated polyacrylamide carrying the ST glycan (PAA-ST; Glycotech).

Experiment [2] relates to CD8+ T cells. Briefly: Co-culture of MUC1-ST educated M-CSF macrophages with CD3/CD28 stimulated autologous T cells. It counts as cell-based, human. The note with it: MUC1-ST educated M-CSF macrophages. The procedure: In addition, primary monocytes were induced to differentiate to macrophages in the presence of MUC1-ST and then co-cultured for 48 hours with CD3/CD28 stimulated autologous CD8+ or CD4+ T cells. T cell proliferation and CD69/CD25 cell surface expression were measured using flow cytometry.

In experiment [3] the test system is indoleamine 2,3-dioxygenase (IDO). Description: IDO mRNA in monocyte-derived macrophages (qRT-PCR). It is filed as cell-based, human. The note with it: macrophages differentiated with GM-CSF or M-CSF.

“NeuAcα2,3Galβ1-3GalNAc linked via a Ser/Thr of MUC1 [MUC1-ST]”: the “binding to recombinant Siglec fusion proteins” value in experiment [1] is “bound”. Besides, the “activation of CD8+ T cells (expression of CD25 and CD69)” value in experiment [2] was “lower level of activation”. In addition, the “proliferation of CD8+ T cells” value in experiment [2] (48 hours co-culture) is “significantly inhibited”. For the same substance, the “increase in expression of mRNA encoding IDO” value in experiment [3] is given as 10-25 fold.
